Among the test systems are SK-OV-3 ovarian; BT-549 breast; IGROV1 ovarian; CCRF-CEM leukemia; U251 CNS; NCI-H23 lung; UO-31 renal; ACHN renal.
Assay in all cases: NCI tumour cell line growth inhibition, 48 h

Several values for one entry are separate records, joined by “and”; a condition that tells them apart may be missing. Identical values can stand only once.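 Protocol summary: plate cells (96-well), add compound at 5 concentrations, incubate 48 h, interpolate endpoints linearly. GI50 marks 50% less growth. The concentration for full growth arrest is given as TGI.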

Turning to `CCCN(Cc1ccc(F)cc1)c1ccc(CO)c(Cl)c1`, the GI50 in the assay on SK-OV-3 ovarian is 6.31 µM; in the assay on BT-549 breast, 11.7 µM; with IGROV1 ovarian it was 0.0897 µM; in the assay with CCRF-CEM leukemia, 12.2 µM; in the assay with U251 CNS it was 2.48 µM; in the assay on NCI-H23 lung, 4.24 µM. Also, the GI50 with UO-31 renal was 2.65 µM; in the assay on ACHN renal it was 9.98 µM. Moreover, the TGI stood at 19 µM in the assay on SK-OV-3 ovarian; 25.6 µM with BT-549 breast; 0.39 µM in the assay with IGROV1 ovarian; 30.5 µM in the assay with CCRF-CEM leukemia; 16.2 µM in the assay with U251 CNS; 20.2 µM in the assay with NCI-H23 lung. The results for the TGI in the assay with UO-31 renal and with ACHN renal were 13.9 µM and 22.8 µM, respectively.
As to `CC1Oc2cc3c(-c4c(O)cc(O)c5c(O)c6c(cc45)OC(C)C(C)C6=O)c(O)cc(O)c3c(O)c2C(=O)C1C` (configuration not stated), the TGI in the assay with SK-OV-3 ovarian was found to be 1.56 µM; with BT-549 breast, 0.775 µM; with IGROV1 ovarian it was 1.3 µM; with CCRF-CEM leukemia, 0.148 µM; in the assay on U251 CNS it was 0.404 µM; in the assay on NCI-H23 lung it was 0.756 µM. Further, the TGI worked out at 1.54 µM in the assay with UO-31 renal and 1.57 µM in the assay with ACHN renal.
With `CCN(CC)CCOc1ccc(C(=C(C)c2ccc(Cl)cc2)c2ccc(OCCN(CC)CC)cc2)cc1`, the GI50 with SK-OV-3 ovarian is 1.22 µM; in the assay on BT-549 breast, 1.33 µM; in the assay on IGROV1 ovarian it was 0.609 µM; in the assay with CCRF-CEM leukemia it was 0.625 µM; in the assay with U251 CNS, 0.582 µM; in the assay on NCI-H23 lung, 1.88 µM. In addition, the GI50 is 0.503 µM in the assay with UO-31 renal and 0.614 µM with ACHN renal. Besides, the TGI was 4.11 µM in the assay with SK-OV-3 ovarian; 4.22 µM with BT-549 breast; 1.19 µM with IGROV1 ovarian; 1.71 µM in the assay on CCRF-CEM leukemia; 1.15 µM in the assay on U251 CNS; 6.41 µM in the assay on NCI-H23 lung. Also, the TGI amounted to 0.969 µM in the assay on UO-31 renal and 1.15 µM in the assay on ACHN renal.
In the case of `CCc1ccc(NC(=O)Nc2c[nH]c3ccccc23)cc1`, the GI50 in the assay on SK-OV-3 ovarian is 19.7 µM; with BT-549 breast, 1.68 µM; in the assay with IGROV1 ovarian it was 5.72 µM; in the assay with CCRF-CEM leukemia, 0.358 µM; in the assay on U251 CNS, 31.5 µM; in the assay with NCI-H23 lung it was 36.3 µM. The GI50 is 1.62 µM in the assay with UO-31 renal and 23.2 µM with ACHN renal. The TGI with SK-OV-3 ovarian was above 73.2 µM; in the assay on BT-549 breast, above 23.8 µM; with IGROV1 ovarian, above 45.5 µM; in the assay with CCRF-CEM leukemia it was above 100 µM; in the assay with U251 CNS, above 51.7 µM; in the assay with NCI-H23 lung it was above 54.1 µM. Also, the TGI is above 58 µM in the assay on UO-31 renal and above 84.3 µM in the assay on ACHN renal.
Take `CCOC(=O)c1c2c(n(CC(C)C)c1C)-c1nc[nH]c1C(=O)C2=O`: the GI50 with SK-OV-3 ovarian is 22.4 µM; with BT-549 breast, 16.4 µM; in the assay with IGROV1 ovarian it was 18.8 µM; in the assay on CCRF-CEM leukemia, 4.78 µM; in the assay on U251 CNS, 14.2 µM; in the assay with UO-31 renal, 16.3 µM. Also, in the assay on ACHN renal, the GI50 was 14.2 µM. Further, the TGI with SK-OV-3 ovarian is 37.3 µM; in the assay on BT-549 breast it was 30.4 µM; with IGROV1 ovarian it was 36 µM; with CCRF-CEM leukemia, 16.7 µM; in the assay with U251 CNS, 27.2 µM; with UO-31 renal, 29.9 µM. In the assay with ACHN renal, this compound returned a TGI of 27.2 µM.
Turning to `COc1cc(Cn2cc3c(c2)-c2oncc2CC3)cc(OC)c1OC`, the GI50 was 0.0402 µM with SK-OV-3 ovarian; 0.111 µM with BT-549 breast; 0.0456 µM with IGROV1 ovarian; 0.0193 µM in the assay on CCRF-CEM leukemia; 0.0387 µM with U251 CNS; 0.048 µM in the assay on NCI-H23 lung. Besides, the GI50 is 0.0594 µM in the assay with UO-31 renal and 0.134 µM with ACHN renal. Moreover, the TGI with SK-OV-3 ovarian was above 57.5 µM; with BT-549 breast, above 100 µM; with IGROV1 ovarian, 24.8 µM; in the assay with CCRF-CEM leukemia, 16.7 µM; in the assay with U251 CNS, above 100 µM; in the assay with NCI-H23 lung it was above 69.7 µM. Further, the TGI with UO-31 renal was 15.1 µM; with ACHN renal it was above 100 µM.
For `C=C(C)[C@@H]1CC=C(CO)CC1`, the GI50 with SK-OV-3 ovarian, with IGROV1 ovarian, with CCRF-CEM leukemia, with U251 CNS, in the assay with NCI-H23 lung and in the assay on UO-31 renal was above 10 µM in each case. Further, the GI50 with ACHN renal is above 10 µM. The TGI in the assay with SK-OV-3 ovarian is > 10 µM and 2570 µM; with BT-549 breast it was above 10 µM; with IGROV1 ovarian it was > 10 µM and 1260 µM; with CCRF-CEM leukemia, > 10 µM and 440 µM; with U251 CNS, > 10 µM and 806 µM; in the assay on NCI-H23 lung, > 10 µM and 1120 µM. Moreover, the TGI with UO-31 renal is > 10 µM and 1050 µM; in the assay with ACHN renal it was > 10 µM and 657 µM.
Turning to `OCC1OC(n2ccc3c2ncn2ncnc32)C(O)C1O` (configuration not stated), the GI50 in the assay with SK-OV-3 ovarian was 2.08 µM; in the assay with BT-549 breast it was 1.23 µM; with IGROV1 ovarian, 3.73 µM; in the assay on CCRF-CEM leukemia, 0.596 µM; in the assay with U251 CNS, 47.7 µM; in the assay on NCI-H23 lung, 1.4 µM. Further, the GI50 with UO-31 renal is 2.74 µM; with ACHN renal, 0.719 µM. For the same compound, the TGI was above 49.2 µM in the assay on SK-OV-3 ovarian; 25.2 µM in the assay on BT-549 breast; above 47.4 µM with IGROV1 ovarian; above 100 µM with CCRF-CEM leukemia; above 100 µM with U251 CNS; above 100 µM in the assay on NCI-H23 lung. The TGI in the assay with UO-31 renal and in the assay with ACHN renal was above 100 µM throughout.
With `N=C(N)c1nn(C2OC(CO)C(O)C2O)c2nc[nH]c(=O)c12` (configuration not stated), the GI50 is 0.409 µM in the assay on SK-OV-3 ovarian; 0.33 µM in the assay on BT-549 breast; 1.19 µM in the assay on IGROV1 ovarian; 0.434 µM in the assay on CCRF-CEM leukemia; 2.06 µM in the assay with U251 CNS; 0.727 µM in the assay on NCI-H23 lung. Further, the GI50 in the assay on UO-31 renal was 0.332 µM; in the assay with ACHN renal, 0.292 µM. Besides, the TGI with SK-OV-3 ovarian was 2.97 µM; in the assay with BT-549 breast, 2.67 µM; in the assay with IGROV1 ovarian, 3.81 µM; with U251 CNS it was above 37.1 µM; in the assay on NCI-H23 lung it was 3.63 µM; with UO-31 renal it was 2.62 µM. Moreover, the TGI in the assay with ACHN renal stood at 1.99 µM.

These data come from PubChem BioAssay (NCI).
